Measured values taken from patent US9700047B2, “Macrocyclic picolinamides as fungicides” (Dow AgroSciences LLC, priority 2014, dated 2017).
Where two headings read alike, the source gives them in different places.

Key:
[1] = test system: Puccinia triticina; Synonym: Puccinia recondita f sp. tritici; assay: Wheat brown rust (PUCCRT) disease control on wheat seedlings; assay type: in vivo; details: for pest or weed control at 121.5 g/ha: Low Volume activity at 121.5 g/H; for pest or weed control at 100 ppm: High Volume activity at 100 ppm
Description: All fungicides were evaluated using the aforementioned method for their activity vs. all target diseases, unless stated otherwise. Wheat leaf blotch and brown rust activity were also evaluated using track spray applications, in which case the fungicides were formulated as EC formulations, containing 0.1% Trycol 5941 in the spray solutions. Wheat plants (variety Yuma) were grown from seed in a greenhouse in 50% mineral soil/50% soil-less Metro mix until the first leaf was fully emerged, with 7-10 seedlings per pot. These plants were inoculated with an aqueous spore suspension of Puccinia triticina either prior to or after fungicide treatments. […] The plants were then transferred to a greenhouse set at 24° C. for disease to develop. Fungicide formulation, application and disease assessment followed the procedures as described in the Example A.

[2] = test system: Rhyncosporium secalis; assay: Barley scald (RHYNSE) disease control on barley seedlings; assay type: in vivo; details: 100 ppm; 1 Day Protectant
Description: All fungicides were evaluated using the aforementioned method for their activity vs. all target diseases, unless stated otherwise. Wheat leaf blotch and brown rust activity were also evaluated using track spray applications, in which case the fungicides were formulated as EC formulations, containing 0.1% Trycol 5941 in the spray solutions. Barley seedlings (variety Harrington) were propagated in soil-less Metro mix, with each pot having 8 to 12 plants, and used in the test when first leaf was fully emerged. Test plants were inoculated by an aqueous spore suspension of Rhyncosporium secalis 24 hr after fungicide treatments. After inoculation the plants were kept in a dew room at 20° C. with 100% relative humidity for 48 hr. The plants were then transferred to a greenhouse set at 20° C. for disease to develop. Fungicide formulation, application and disease assessment on the sprayed leaves followed the procedures as described in the Example A.

[3] = 24 h, 1 Day Protectant, read-out: PUCCRT 1DP % Control rating
[4] = 72 h, 3 Day Curative, read-out: PUCCRT 3DC % Control rating

SMILES | pest or weed control at 121.5 g/ha [1, 3] | pest or weed control at 121.5 g/ha [1, 4] | RHYNSE 1DP Disease Control rating [2] | pest or weed control at 100 ppm [1, 3] | pest or weed control at 100 ppm [1, 4]
CCCC[C@@H]1[C@@H](Cc2ccc(C(F)(F)F)cc2)CCC[C@H](NC(=O)c2nccc(OC)c2OCOC(C)=O)C(=O)O[C@H]1C [Compound 3] | > 70% | < 70% | B (≦70) | – | –
COc1ccnc(C(=O)N[C@H]2CCC[C@H](CC3CC3)[C@@H](Cc3ccccc3)[C@H](C)OC2=O)c1OC(C)=O [Compound 60] | > 70% | > 70% | – | – | –
COc1ccnc(C(=O)N[C@H]2CCC[C@H](CC3CC3)[C@@H](Cc3ccccc3)[C@H](C)OC2=O)c1OCOC(C)=O [Compound 61] | > 70% | > 70% | – | – | –
COc1ccnc(C(=O)N[C@H]2CCC[C@H](Cc3ccccc3)[C@@H](Cc3ccc(F)cc3)[C@H](C)OC2=O)c1OC(C)=O [Compound 62] | > 70% | < 70% | – | – | –
COc1ccnc(C(=O)N[C@H]2CCC[C@H](Cc3ccccc3)[C@@H](Cc3ccc(F)cc3)[C@H](C)OC2=O)c1OCOC(C)=O [Compound 63] | > 70% | < 70% | – | – | –
COc1ccnc(C(=O)N[C@H]2CCC[C@H](Cc3ccccc3)[C@@H](Cc3ccc(F)cc3)[C@H](C)OC2=O)c1OCOC(=O)C(C)C [Compound 64] | > 70% | < 70% | – | – | –
COc1ccnc(C(=O)N[C@H]2CCC[C@H](Cc3ccc(C(F)(F)F)cc3)[C@@H](Cc3ccc(OC(F)(F)F)cc3)[C@H](C)OC2=O)c1OCOC(C)=O [Compound 65] | < 70% | < 70% | – | – | –
CCOCC(=O)OCOc1c(OC)ccnc1C(=O)N[C@H]1CCC[C@H](Cc2ccc(C(F)(F)F)cc2)[C@@H](Cc2ccc(OC(F)(F)F)cc2)[C@H](C)OC1=O [Compound 66] | < 70% | < 70% | – | – | –
COc1ccnc(C(=O)N[C@H]2CCC[C@H](Cc3ccc(C(F)(F)F)cc3)[C@@H](Cc3ccc(OC(F)(F)F)cc3)[C@H](C)OC2=O)c1OC(C)=O [Compound 67] | < 70% | < 70% | – | – | –
COc1ccnc(C(=O)N[C@H]2CCC[C@H](Cc3ccccc3)[C@@H](Cc3ccc(OC(F)(F)F)cc3)[C@H](C)OC2=O)c1OCOC(C)=O [Compound 68] | < 70% | < 70% | – | – | –
CCOCC(=O)OCOc1c(OC)ccnc1C(=O)N[C@H]1CCC[C@H](Cc2ccccc2)[C@@H](Cc2ccc(OC(F)(F)F)cc2)[C@H](C)OC1=O [Compound 69] | < 70% | < 70% | – | – | –
COc1ccnc(C(=O)N[C@H]2CCC[C@H](CCCc3ccccc3)[C@@H](Cc3ccccc3)[C@H](C)OC2=O)c1OCOC(C)=O [Compound 70] | > 70% | < 70% | – | – | –
CCCC[C@@H]1[C@@H](Cc2ccccc2)CCC[C@H](NC(=O)c2nccc(OC)c2O)C(=O)O[C@H]1C [Compound 71, N-((3S,7R,8R,9S)-7-benzyl-8-butyl-9-methyl-2-oxooxonan-3-yl)-3-hydroxy-4-methoxypicolinamide] | – | – | – | > 70% | > 70%
CCCC[C@@H]1[C@@H](Cc2ccc(C(F)(F)F)cc2)CCC[C@H](NC(=O)c2nccc(OC)c2O)C(=O)O[C@H]1C [Compound 72] | – | – | – | > 70% | < 70%
COc1ccnc(C(=O)N[C@H]2CCC[C@H](CCC(C)C)[C@@H](Cc3ccccc3)[C@H](C)OC2=O)c1O [Compound 73] | – | – | – | > 70% | < 70%
COc1ccnc(C(=O)N[C@H]2CCC[C@H](Cc3ccccc3)[C@@H](Cc3ccccc3)[C@H](C)OC2=O)c1O [Compound 74] | – | – | – | > 70% | > 70%
COc1ccnc(C(=O)N[C@H]2CCC[C@H](Cc3ccccc3)[C@@H](C3CCCC3)[C@H](C)OC2=O)c1O [Compound 75] | – | – | – | > 70% | < 70%
COc1ccnc(C(=O)N[C@H]2CCC[C@H](Cc3ccc(Cl)cc3)[C@@H](CC(C)C)[C@H](C)OC2=O)c1O [Compound 76] | – | – | – | > 70% | < 70%
COc1ccnc(C(=O)N[C@H]2CCC[C@H](Cc3ccccc3)[C@@H](CCc3ccccc3)[C@H](C)OC2=O)c1O [Compound 78] | – | – | – | > 70% | < 70%

SMILES | pest or weed control at 121.5 g/ha [1, 3] | pest or weed control at 121.5 g/ha [1, 4] | RHYNSE 1DP Disease Control rating [2] | pest or weed control at 100 ppm [1, 3] | pest or weed control at 100 ppm [1, 4]
COc1ccnc(C(=O)N[C@H]2CCC[C@H](Cc3ccc(Cl)cc3)[C@@H](Cc3ccccc3)[C@H](C)OC2=O)c1O [Compound 79] | – | – | – | > 70% | < 70%
COc1ccnc(C(=O)N[C@H]2CCC[C@H](Cc3ccc(C(F)(F)F)cc3)[C@@H](CC(C)C)[C@H](C)OC2=O)c1O [Compound 80] | – | – | – | > 70% | < 70%
COc1ccnc(C(=O)N[C@H]2CCC[C@H](Cc3ccc(C(F)(F)F)cc3)[C@@H](Cc3ccccc3)[C@H](C)OC2=O)c1O [Compound 81] | – | – | – | > 70% | < 70%
CCC[C@H]1CCC[C@H](NC(=O)c2nccc(OC)c2O)C(=O)O[C@@H](C)[C@@H]1Cc1ccccc1 [Compound 82] | – | – | – | > 70% | > 70%
COc1ccnc(C(=O)N[C@H]2CCC[C@H](CCC(C)C)[C@@H](CCc3ccccc3)[C@H](C)OC2=O)c1O [Compound 83] | – | – | – | > 70% | < 70%
COc1ccnc(C(=O)N[C@H]2CCC[C@H](Cc3ccc(Cl)cc3)[C@@H](C3CCCC3)[C@H](C)OC2=O)c1O [Compound 84] | – | – | – | > 70% | < 70%
COc1ccnc(C(=O)N[C@H]2CCC[C@H](CCCc3ccccc3)[C@@H](CCc3ccccc3)[C@H](C)OC2=O)c1O [Compound 85] | – | – | – | > 70% | < 70%
COc1ccnc(C(=O)N[C@H]2CCC[C@H](Cc3ccc(C(F)(F)F)cc3)[C@@H](Cc3ccc(F)cc3)[C@H](C)OC2=O)c1O [Compound 86] | – | – | – | > 70% | < 70%
COc1ccnc(C(=O)N[C@H]2CCC[C@H](CCC(C)C)[C@@H](C3CCCC3)[C@H](C)OC2=O)c1O [Compound 87] | – | – | – | > 70% | < 70%
COc1ccnc(C(=O)N[C@H]2CCC[C@H](Cc3ccccc3)[C@@H](CCC(C)C)[C@H](C)OC2=O)c1O [Compound 88] | – | – | – | > 70% | < 70%
COc1ccnc(C(=O)N[C@H]2CCC[C@H](Cc3ccccc3)[C@@H](c3ccccc3)[C@H](C)OC2=O)c1O [Compound 90] | – | – | – | > 70% | > 70%
CCC[C@H]1CCC[C@H](NC(=O)c2nccc(OC)c2O)C(=O)O[C@@H](C)[C@@H]1c1ccccc1 [Compound 91] | – | – | – | > 70% | < 70%
COc1ccnc(C(=O)N[C@H]2CCC[C@H](CCCc3ccccc3)[C@@H](CC(C)C)[C@H](C)OC2=O)c1O [Compound 92] | – | – | – | > 70% | < 70%
COc1ccnc(C(=O)N[C@H]2CCC[C@H](CCCc3ccccc3)[C@@H](Cc3ccc(OC(F)(F)F)cc3)[C@H](C)OC2=O)c1O [Compound 93] | – | – | – | < 70% | < 70%
COc1ccnc(C(=O)N[C@H]2CCC[C@H](CC3CC3)[C@@H](Cc3ccccc3)[C@H](C)OC2=O)c1O [Compound 94] | > 70% | < 70% | – | – | –
COc1ccnc(C(=O)N[C@H]2CCC[C@H](Cc3ccccc3)[C@@H](Cc3ccc(F)cc3)[C@H](C)OC2=O)c1O [Compound 95] | > 70% | < 70% | – | – | –
COc1ccnc(C(=O)N[C@H]2CCC[C@H](Cc3ccc(C(F)(F)F)cc3)[C@@H](Cc3ccc(OC(F)(F)F)cc3)[C@H](C)OC2=O)c1O [Compound 96] | – | – | – | < 70% | < 70%
COc1ccnc(C(=O)N[C@H]2CCC[C@H](Cc3ccccc3)[C@@H](Cc3ccc(OC(F)(F)F)cc3)[C@H](C)OC2=O)c1O [Compound 97] | – | – | – | > 70% | < 70%
COc1ccnc(C(=O)N[C@H]2CCC[C@H](CCCc3ccccc3)[C@@H](Cc3ccccc3)[C@H](C)OC2=O)c1O [Compound 98] | – | – | – | > 70% | < 70%
